Data as given in US4314028A, “Fermentation process for producing tallysomycin compounds” (priority 1980, dated 1982).

Key:
Type in all cases: cell-based
[1] = test system: Aspergillus fumigatus IAM 2593; assay: MIC, two-fold agar dilution method; settings: Sabouraud agar
Experimental: (§1) The minimum inhibitory concentrations (MIC) of the semibiosynthetic tallysomycin derivatives of the present invention were determined against fungi and gram-positive, gram-negative and acid-fast bacteria by the two-fold agar dilution method. Nutrient agar was used for bacteria and Sabouraud agar for fungi. The results are shown in the table below comparatively with tallysomycin A and B.

[2] = test system: Bacillus subtilis PCI 219; assay: MIC, two-fold agar dilution method; settings: nutrient agar
Experimental: as §1

[3] = test system: Candida albicans IAM 4888; assay: MIC, two-fold agar dilution method; settings: Sabouraud agar
Experimental: as §1

Escherichia coli NIHJ = assay: MIC, two-fold agar dilution method; settings: nutrient agar
Experimental: as §1

Mycobacterium 607 = assay: MIC, two-fold agar dilution method; settings: nutrient agar
Experimental: as §1

Proteus mirabilis A9554 = assay: MIC, two-fold agar dilution method; settings: nutrient agar
Experimental: as §1

Sarcina lutea PCI1001 = assay: MIC, two-fold agar dilution method; settings: nutrient agar
Experimental: as §1

[4] = test system: Staphylococcus aureus Smith; assay: MIC, two-fold agar dilution method; settings: nutrient agar
Experimental: as §1

[5] = test system: Mycobacterium smegmatis strain M6-3; assay: Relative antibacterial potency, paper-disc agar diffusion method; settings: relative to tallysomycin A standard=1000 mcg/mg
Experimental: The relative antibacterial potencies (tallysomycin A standard=1000 mcg/mg) of the tallysomycin derivatives were determined by the paper-disc agar diffusion method using Mycobacterium smegmatis strain M6-3 as the assay organism.

[6] = test system: lysogenic bacterium E. coli W1709 (λ); assay: Prophage induction of lysogenic bacterium (ILB activity); settings: t/c ratio of plaque counts greater than 3.0
Experimental: The activity of prophage induction of lysogenic bacterium E. coli W1709 (λ) was determined according to the method disclosed by Lein et al. in Nature 196: 783-784 (1962). The plaque count was made on the agar plate containing test compound (t) and control plate (c). A t/c ratio of the plaque counts of greater than 3.0 was defined to be a significant level and lysogenic induction activity (ILB activity) was expressed by the minimum inducible concentration of the test compound.

minimum inhibitory concentration (MIC) [1]	minimum inhibitory concentration (MIC) [2]	minimum inhibitory concentration (MIC) [3]	minimum inhibitory concentration (MIC) (Escherichia coli NIHJ)	minimum inhibitory concentration (MIC) (Mycobacterium 607)	minimum inhibitory concentration (MIC) (Proteus mirabilis A9554)	minimum inhibitory concentration (MIC) (Sarcina lutea PCI1001)	minimum inhibitory concentration (MIC) [4]	Compound	Antibacterial potency [5]	ILB activity (minimum inducible concentration) [6] [µg/mL]
0.8	0.006	6.3	0.2	0.2	0.2	0.4	0.4	Cc1c(N)nc([C@H](CC(N)=O)NC[C@@H](N)C(N)=O)nc1C(=O)N[C@H](C(=O)N[C@H](C)[C@@H](O)CC(=O)N[C@@H](C(=O)NC(O[C@@H]1O[C@@H](C)[C@@H](N)[C@@H](O)[C@H]1O)C(O)c1nc(-c2nc(C(=O)NCCCNCCCCN)cs2)cs1)[C@@H](C)O)C(O[C@@H]1O[C@@H](CO)[C@H](O)[C@@H](O)[C@@H]1O[C@H]1O[C@H](CO)[C@@H](O)[C@@H](OC(N)=O)[C@@H]1O)c1cnc[nH]1 (stereo partly drawn) [Tallysomycin B, reference compound]	900 μ/mg	0.01
1.6	< 0.003	12.5	0.05	0.2	0.4	0.05	0.1	Cc1c(N)nc([C@H](CC(N)=O)NC[C@H](N)C(N)=O)nc1C(=O)N[C@H](C(=O)N[C@H](C)[C@@H](O)CC(=O)N[C@H](C(=O)NC(O[C@@H]1O[C@@H](C)[C@@H](N)[C@@H](O)[C@H]1O)C(O)c1nc(-c2nc(C(=O)NCCCC(N)CC(=O)NCCCNCCCCN)cs2)cs1)[C@@H](C)O)[C@H](O[C@@H]1O[C@@H](CO)[C@@H](O)[C@H](O)[C@@H]1O[C@H]1O[C@H](CO)[C@@H](O)[C@H](OC(N)=O)[C@@H]1O)c1c[nH]cn1 (stereo partly drawn) [Tallysomycin A, reference compound]	1,000 μ/mg	0.00125
3.1	0.1	50	0.2	0.1	3.1	0.8	0.8	Cc1c(N)nc(C(CC(N)=O)NCC(N)C(N)=O)nc1C(=O)NC(C(=O)NC(C)C(O)CC(=O)NC(C(=O)NC(OC1OC(C)C(N)C(O)C1O)C(O)c1nc(-c2nc(C(=O)NCCCC(N)CC(=O)NCCCNC(C)c3ccccc3)cs2)cs1)C(C)O)C(OC1OC(CO)C(O)C(O)C1OC1OC(CO)C(O)C(OC(N)=O)C1O)c1c[nH]cn1 (stereo not drawn) [Tallysomycin S14a]	1,300 μ/mg	0.01
